# Laboratory results taken from PMC2873968, “Novel protein kinase D inhibitors cause potent arrest in prostate cancer cell growth and motility” (BMC Chemical Biology, 2010).
# Columns and labels:
# recombinant human PKD3 = target: T1, recombinant human PKD3 (Homo sapiens, UniProt O94806); assay: In vitro radiometric PKD kinase assay; type: biochemical; details: for IC50: radiometric kinase assay, mean ± S.E.M.
# T1 construct: purchased Enzo Life Sciences
# T1 sequence (O94806 1-890): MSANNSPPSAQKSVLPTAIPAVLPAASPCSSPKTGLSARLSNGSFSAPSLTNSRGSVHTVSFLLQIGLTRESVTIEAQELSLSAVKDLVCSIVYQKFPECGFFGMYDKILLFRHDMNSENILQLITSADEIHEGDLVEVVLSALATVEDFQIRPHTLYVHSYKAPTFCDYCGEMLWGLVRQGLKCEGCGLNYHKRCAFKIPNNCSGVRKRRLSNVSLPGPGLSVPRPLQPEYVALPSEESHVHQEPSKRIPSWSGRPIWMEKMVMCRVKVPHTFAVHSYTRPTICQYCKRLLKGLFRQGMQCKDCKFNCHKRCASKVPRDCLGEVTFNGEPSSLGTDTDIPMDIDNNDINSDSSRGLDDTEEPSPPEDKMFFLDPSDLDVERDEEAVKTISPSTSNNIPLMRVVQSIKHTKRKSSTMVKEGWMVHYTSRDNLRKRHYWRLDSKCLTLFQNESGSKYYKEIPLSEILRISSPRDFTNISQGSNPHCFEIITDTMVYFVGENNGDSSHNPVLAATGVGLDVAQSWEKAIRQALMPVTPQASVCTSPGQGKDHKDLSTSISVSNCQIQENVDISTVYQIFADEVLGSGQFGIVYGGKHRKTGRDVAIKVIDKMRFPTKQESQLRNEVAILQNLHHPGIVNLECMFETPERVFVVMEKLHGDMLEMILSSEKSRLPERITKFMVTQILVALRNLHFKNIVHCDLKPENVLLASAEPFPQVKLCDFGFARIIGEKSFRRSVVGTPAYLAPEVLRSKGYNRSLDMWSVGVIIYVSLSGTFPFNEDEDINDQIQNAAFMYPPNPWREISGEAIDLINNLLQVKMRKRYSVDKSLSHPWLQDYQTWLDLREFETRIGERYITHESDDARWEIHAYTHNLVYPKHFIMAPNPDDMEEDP
# Experimental: In vitro radiometric kinase assays were conducted as previously described. Briefly, 1 μCi [γ-^32P] ATP (PerkinElmer Life Sciences), 70 μM ATP, 50 ng purified recombinant human PKD1 (Biomol International, Plymouth Meeting, PA), PKD2 (SignalChem, Richmond, BC, Canada), or CAMKIIα (Enzo Life Sciences) or 75 ng PKD3 (Enzo Life Sciences), and 2.5 μg syntide-2 (Sigma) in 50 μl kinase buffer containing 50 mM Tris-HCl, pH 7.5, 4 mM MgCl2, and 10 mM β-mercaptoethanol. For the CAMK assay, 0.5 mM CaCl2 and 30 ng/μl calmodulin were pre-incubated for 10 min on ice, and then added to each reaction mixture. The reaction was incubated at 30°C for 10 min, and 25 μl of the reaction mixture was then spotted onto Whatman P81 filter paper (Whatman Inc., Clifton, NJ). The filter papers were washed 3 times in 0.5% phosphoric acid, air-dried, and counted using a Beckman LS6500 multipurpose scintillation counter (Beckman).
# The in vitro inhibitory activities of the novel compounds toward PKD were determined using radiometric PKD kinase activity assays. Recombinant human PKD1, -2, or -3 was incubated with the substrate, syntide-2, in the presence of 10 different concentrations of each compound. IC50 values were determined for each compound by plotting percent PKD activity versus compound concentration for each point.
# PKD1 = target: T2, PKD1 (Homo sapiens, UniProt Q15139); assay: Inhibition of PMA-induced endogenous PKD1 activation in LNCaP cells (Western blot); type: cell-based; set-up: endogenous in cells; host or cells: LNCaP; details: 45 min pretreatment, 100 nM PMA 20 min, densitometry of Western blots, mean ± S.E.M., read-out: Cellular IC50, inhibition of PKD1 autophosphorylation at S916
# T2 sequence (Q15139 1-912): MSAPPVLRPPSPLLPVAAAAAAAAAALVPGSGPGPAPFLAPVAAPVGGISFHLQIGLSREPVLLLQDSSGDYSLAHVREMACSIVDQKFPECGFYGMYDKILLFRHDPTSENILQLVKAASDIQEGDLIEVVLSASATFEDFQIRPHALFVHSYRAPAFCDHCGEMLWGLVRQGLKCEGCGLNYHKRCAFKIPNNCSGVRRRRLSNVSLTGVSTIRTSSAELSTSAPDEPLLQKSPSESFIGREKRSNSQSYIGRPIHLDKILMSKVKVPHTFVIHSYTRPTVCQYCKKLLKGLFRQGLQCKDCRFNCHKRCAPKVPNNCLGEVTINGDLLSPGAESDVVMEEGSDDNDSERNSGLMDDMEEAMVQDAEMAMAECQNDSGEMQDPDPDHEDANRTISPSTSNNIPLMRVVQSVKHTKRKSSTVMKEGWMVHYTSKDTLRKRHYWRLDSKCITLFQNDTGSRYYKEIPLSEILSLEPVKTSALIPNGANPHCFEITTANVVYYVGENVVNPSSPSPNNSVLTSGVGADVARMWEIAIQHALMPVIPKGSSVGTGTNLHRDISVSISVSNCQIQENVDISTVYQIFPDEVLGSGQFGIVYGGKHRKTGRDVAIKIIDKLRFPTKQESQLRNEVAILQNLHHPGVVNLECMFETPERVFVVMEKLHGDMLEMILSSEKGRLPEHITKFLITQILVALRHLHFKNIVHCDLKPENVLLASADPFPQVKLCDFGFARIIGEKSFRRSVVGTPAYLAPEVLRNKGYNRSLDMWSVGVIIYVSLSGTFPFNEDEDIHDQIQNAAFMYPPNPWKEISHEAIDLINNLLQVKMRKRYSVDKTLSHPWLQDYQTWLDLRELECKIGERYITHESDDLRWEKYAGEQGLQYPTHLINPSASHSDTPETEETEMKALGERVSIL
# Experimental: LNCaP cells were maintained as described previously. Western blot analysis was carried out as previously reported. Briefly, cells were lysed in lysis buffer containing 200 mM Tris-HCl, pH 7.4, 100 μM 4-(2-aminoethyl) benzenesulfonyl fluoride, 1 mM EGTA, and 1% Triton X-100. Protein concentration was determined using the BCA Protein Concentration Assay reagent kit (Pierce) and then equal amounts of protein were subjected to SDS-PAGE followed by electrotransfer to nitrocellulose membranes. Membranes were blocked with 5% nonfat milk in Tris-buffered saline and then probed with primary antibodies for either p-S916-PKD1 (Millipore), p-S742-PKCμ/PKD (Biosource), or GAPDH, followed by anti-mouse or anti-rabbit secondary antibodies conjugated to horseradish peroxidase (Bio-Rad). The enhanced chemiluminescence (ECL) Western blotting detection system (Amersham Biosciences) was used to facilitate detection of protein bands.
# LNCaP cells were pretreated with indicated concentrations of the five analogs for 45 min, then stimulated with 100 nM PMA for 20 min. Cell lysates were immunoblotted for p-S916-PKD1 and p-S742-PKD1. GAPDH was blotted as a loading control. The experiment was repeated at least three times and representative blots are shown.
structure (smiles),measurement,setting,value
O=C1NCCSc2c1sc1ccc(O)cc21 [kb-NB142-70],fold stronger inhibition of PKD3 than CID755673,recombinant human PKD3,about 4 fold
same,IC50,recombinant human PKD3,53.2 ± 3.5 nM
same,IC50,PKD1,2200 ± 600 nM
O=C1NCCSc2c1sc1ccc(O)c(I)c21 [kb-NB165-31],IC50,recombinant human PKD3,91.1 ± 17.2 nM
same,IC50,PKD1,8600 ± 2000 nM
COc1ccc2sc3c(c2c1)SCCNC3=O [kb-NB165-09],IC50,recombinant human PKD3,98.5 ± 15.3 nM
same,IC50,PKD1,3100 ± 500 nM
O=C1NCCCSc2c1sc1ccc(O)cc21 [kb-NB165-92],fold greater inhibition of PKD3 than PKD1 or -2,recombinant human PKD3,about 2 fold
same,IC50,recombinant human PKD3,58.8 ± 7.3 nM
same,change of potency for PKD3,recombinant human PKD3; versus kb-NB142-70,not altering potency
same,IC50,PKD1,2600 ± 700 nM
COc1ccc2sc3c(c2c1)SCCCNC3=O [kb-NB184-02],IC50,recombinant human PKD3,325 ± 39 nM
same,IC50,PKD1,18600 ± 2000 nM
